Measured values as given in patent US4490388A, “Amidine compound and anticomplement agent comprising same” (Torii & Co., Ltd., priority 1981, dated 1984).
pIC50: −log10 of the molar value. Read-outs that look alike come from different tables or passages of the source.

Columns and labels:
complement = assay: Inhibition of complement mediated hemolysis; type: cell-based; conditions: read-out: Inhibition of complement mediated hemolysis (%)
Protocol: The complement mediated hemolysis is widely used as a means to determine the titration of complement. The principle of this method is based on the fact that hemolysis is caused by the activation of complement, when the latter is added to a complex (immune complex) of erythrocytes and the autibody thereof. The degree of hemolysis varies in proportion to the amount of complement added. Therefore, when a known amount of complement admixed with a C1 esterase inhibitor is used, the hemolysis must be suppressed in proportion to the inhibitory activity.
The anti-C1 esterase (C1r, C1s) activity was determined according to the method of Okamura et al. [K. Okamura, M. Muramatsu and B. Fujii, Biochem. Biophys. […] The inhibition of complement mediated hemolysis was determined according to the method of Baker et al. [B. R. Baker and E. H. Erickson, J. Med. Chem., 12, 408-414 (1969)].

Plasmin = Plasmin (Homo sapiens, UniProt P00747); assay: Anti-plasmin activity (hydrolysis of TAME); type: biochemical; conditions: molar concentration inhibiting 50% of TAME hydrolysis; read-out: id50, Plasmin
Plasmin, sequence (P00747 581-810 limits assumed): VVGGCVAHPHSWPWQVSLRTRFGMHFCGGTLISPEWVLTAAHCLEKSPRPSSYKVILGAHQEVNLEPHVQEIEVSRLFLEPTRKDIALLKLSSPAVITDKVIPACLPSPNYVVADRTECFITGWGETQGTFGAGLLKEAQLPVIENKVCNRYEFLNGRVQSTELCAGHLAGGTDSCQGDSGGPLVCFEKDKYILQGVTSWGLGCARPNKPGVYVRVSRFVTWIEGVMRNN
Plasmin, sequence (P00747 97-580 partner limits assumed): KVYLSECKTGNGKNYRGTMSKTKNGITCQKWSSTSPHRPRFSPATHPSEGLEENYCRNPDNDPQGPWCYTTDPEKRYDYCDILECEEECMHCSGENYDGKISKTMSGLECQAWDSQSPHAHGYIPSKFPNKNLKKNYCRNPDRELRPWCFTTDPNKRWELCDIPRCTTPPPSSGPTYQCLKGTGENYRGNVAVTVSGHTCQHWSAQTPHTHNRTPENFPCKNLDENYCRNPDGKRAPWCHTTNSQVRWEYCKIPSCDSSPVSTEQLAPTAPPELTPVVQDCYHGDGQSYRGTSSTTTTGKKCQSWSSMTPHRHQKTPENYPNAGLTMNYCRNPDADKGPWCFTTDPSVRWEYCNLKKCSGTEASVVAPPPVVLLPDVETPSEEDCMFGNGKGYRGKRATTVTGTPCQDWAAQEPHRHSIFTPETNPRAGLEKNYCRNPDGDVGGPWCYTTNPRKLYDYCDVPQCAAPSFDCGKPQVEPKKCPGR
Protocol: (§1) The anti-trypsin, anti-plasmin, anti-kallikrein and anti-thrombin activities were determined according to the method of Muramatsu et al. [M. Muramatsu, T. Onishi, S. Makino, Y. Hayashi and S. Fujii, J. of Biochem., 58, 214 (1965)]. The data summarized in Table 1 are expressed in terms of molar concentration (id50) of the test compound which inhibits 50% of the activity of each enzyme to hydrolyze TAME (tosylarginine methyl ester). The compound No. corresponds to the compound number shown in Examples.

Trypsin = target: T1, Trypsin (Bos taurus, UniProt P00760); assay: Anti-trypsin activity (hydrolysis of TAME); type: biochemical; conditions: molar concentration inhibiting 50% of TAME hydrolysis; read-out: id50, Trypsin
T1 sequence (P00760 24-246): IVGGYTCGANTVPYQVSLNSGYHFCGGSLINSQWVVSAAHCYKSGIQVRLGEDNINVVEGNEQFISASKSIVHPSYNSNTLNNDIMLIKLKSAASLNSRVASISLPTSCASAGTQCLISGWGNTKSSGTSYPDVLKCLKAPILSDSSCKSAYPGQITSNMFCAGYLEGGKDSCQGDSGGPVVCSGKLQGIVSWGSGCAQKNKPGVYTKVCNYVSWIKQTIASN
Protocol: as §1

Thrombin = Thrombin (Bos taurus, UniProt P00735); assay: Anti-thrombin activity (hydrolysis of TAME); type: biochemical
Protocol: as §1

C1r = target: T2, C1r (Homo sapiens, UniProt P00736); assay: Anti-C1 esterase activity, C1r (hydrolysis of AAME); type: biochemical; conditions: for inhibition at 10 µM: at 1×10^-5 M, read-out: Anti-C1 activity, C1r percent inhibition; for pIC50: molar concentration inhibiting 50% of AAME hydrolysis, read-out: Anti-C1 activity, C1r id50
T2 sequence (P00736 464-705 limits assumed): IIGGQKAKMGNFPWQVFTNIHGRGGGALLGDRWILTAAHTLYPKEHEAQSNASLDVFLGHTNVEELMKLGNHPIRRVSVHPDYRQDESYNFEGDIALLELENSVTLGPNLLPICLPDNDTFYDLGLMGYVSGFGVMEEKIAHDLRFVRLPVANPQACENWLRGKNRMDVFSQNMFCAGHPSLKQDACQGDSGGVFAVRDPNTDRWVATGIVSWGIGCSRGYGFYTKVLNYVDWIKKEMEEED
T2 sequence (P00736 18-463 partner limits assumed): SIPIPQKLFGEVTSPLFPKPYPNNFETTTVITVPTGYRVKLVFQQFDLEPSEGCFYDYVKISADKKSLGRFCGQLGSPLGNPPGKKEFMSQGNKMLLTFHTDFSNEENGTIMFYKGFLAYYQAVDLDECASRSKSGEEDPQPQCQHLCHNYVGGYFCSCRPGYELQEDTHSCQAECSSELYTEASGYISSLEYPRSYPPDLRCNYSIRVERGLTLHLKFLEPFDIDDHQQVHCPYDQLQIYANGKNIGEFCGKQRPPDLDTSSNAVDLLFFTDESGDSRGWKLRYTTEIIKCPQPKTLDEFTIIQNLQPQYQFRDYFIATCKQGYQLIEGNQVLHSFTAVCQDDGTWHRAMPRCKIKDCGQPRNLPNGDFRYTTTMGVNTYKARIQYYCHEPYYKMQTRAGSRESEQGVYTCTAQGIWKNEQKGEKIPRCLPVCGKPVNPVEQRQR
Protocol: The anti-C1 esterase (C1r, C1s) activity was determined according to the method of Okamura et al. [K. Okamura, M. Muramatsu and B. Fujii, Biochem. Biophys. […] The figures in Table 2 have the following meanings:
C1r: Molar concentration of the test compound which inhibits 50% of the ability of C1r to hydrolyse AAME (acetylarginin methyl ester) (id50).

| SMILES | inhibition at 10 µM (complement; 1 × 10^-5 M) [%] | inhibition at 1 µM (complement; 1 × 10^-6 M) [%] | inhibition at 0.1 µM (complement) [%] | inhibition at 100 µM (complement) [%] | inhibition at 100 µM (complement; 1 × 10^-4 M) [%] | inhibition at 0.1 µM (complement; 1 × 10^-7 M) [%] | inhibition at 1 µM (complement) [%] | pIC50 (Plasmin) | pIC50 (Trypsin) | pIC50 (Thrombin) | inhibition at 10 µM (C1r) [%] | pIC50 (C1r) | inhibition at 10 µM (complement) [%] |
| --- | --- | --- | --- | --- | --- | --- | --- | --- | --- | --- | --- | --- | --- |
| CC(=O)Oc1ccc(C=CC(=N)N)cc1 [Compound 1, 4-(β-amidinoethenyl)phenyl acetate] | 71 | 64 | 10 | 99 |  |  |  |  |  |  |  |  |  |
| CC(C)CC(=O)Oc1ccc(C=CC(=N)N)cc1 [Compound 2, 4-(β-amidinoethenyl)phenyl isovalerate] | 90 |  |  |  | 99 | 8 | 30 |  |  |  |  |  |  |
| CCCCCCC(=O)Oc1ccc(C=CC(=N)N)cc1 [Compound 3] | 75 |  |  | 98 |  | 0 |  | < 5.00 | < 5.00 | < 5.00 | 28 |  |  |
| CC=CC=CC(=O)Oc1ccc(C=CC(=N)N)cc1 [Compound 4] | 99 |  | 12 | 100 |  |  | 86 | 6.05 | 6.40 |  |  | 5.30 |  |
| N=C(N)C=Cc1ccc(OC(=O)C2CC2)cc1 [Compound 5, 4-(β-amidinoethenyl)phenyl cyclopropanecarboxylate] | 100 | 81 |  |  | 100 | 16 |  | 5.70 | 5.22 |  |  | 5.70 |  |
| N=C(N)C=Cc1ccc(OC(=O)C2CCCCC2)cc1 [Compound 6] | 93 | 14 |  |  | 99 | 0 |  |  |  |  |  |  |  |
| N=C(N)C=Cc1ccc(OC(=O)CCCCCNC(=O)OCc2ccccc2)cc1 [Compound 7, 4-(β-amidinoethenyl)phenyl 6-benzyloxycarbonylaminocaproate] | 64 | 13 |  |  | 98 | 14 |  | 5.30 | 5.15 | < 5.00 | 31 |  |  |
| N=C(N)C=Cc1ccc(OC(=O)CCCCCN)cc1 [Compound 8, 4-(β-amidinoethenyl)phenyl 6-aminohexanoate] |  | 9 |  |  | 27 | 0 |  | < 5.00 | 5.70 | < 5.00 |  | < 5.00 | 15 |
| N=C(N)C=Cc1ccc(OC(=O)CCCc2ccccc2)cc1 [Compound 16, 4-(β-amidinoethenyl)phenyl 4-phenylbutyrate] | 34 | 0 |  | 96 |  | 0 |  |  |  |  |  |  |  |
| N=C(N)C=Cc1ccc(OC(=O)C=Cc2ccccc2)cc1 [Compound 17, 4-(β-amidinoethenyl)phenyl cinnamate] | 97 |  |  |  | 93 | 58 | 83 |  |  |  |  |  |  |
| Cc1ccccc1C(=O)Oc1ccc(C=CC(=N)N)cc1 [Compound 18] | 38 | 12 |  |  | 91 | 0 |  |  |  |  |  |  |  |
| Cc1cccc(C(=O)Oc2ccc(C=CC(=N)N)cc2)c1 [Compound 19] | 98 | 65 | 37 |  | 95 |  |  |  |  |  |  |  |  |
| Cc1ccc(C(=O)Oc2ccc(C=CC(=N)N)cc2)cc1C [Compound 21] |  | 37 |  |  | 87 | 22 |  |  |  |  |  |  | 88 |
| COc1ccc(C(=O)Oc2ccc(C=CC(=N)N)cc2)cc1 [Compound 23] | 99 | 94 |  |  | 98 | 42 |  |  |  |  |  |  |  |
| COc1ccc(C(=O)Oc2ccc(C=CC(=N)N)cc2)cc1OC [Compound 24] | 20 | 8 |  |  | 76 | 0 |  |  |  |  |  |  |  |
| COc1ccc(CCC(=O)Oc2ccc(C=CC(=N)N)cc2)cc1 [Compound 25] | 0 | 0 |  |  | 62 | 0 |  |  |  |  |  |  |  |
| N=C(N)C=Cc1ccc(OC(=O)c2ccc3c(c2)OCO3)cc1 [Compound 27] | 99 | 88 |  |  | 100 | 44 |  |  |  |  |  |  |  |
| COC(=O)c1ccc(C(=O)Oc2ccc(C=CC(=N)N)cc2)cc1 [Compound 29] | 93 | 57 |  |  | 98 | 25 |  |  |  |  |  |  |  |
| CC(=O)Nc1ccc(C(=O)Oc2ccc(C=CC(=N)N)cc2)cc1 [Compound 31] | 91 | 65 |  |  | 98 | 25 |  |  |  |  |  |  |  |
| N=C(N)C=Cc1ccc(OC(=O)c2ccc(CNC(=O)OCc3ccccc3)cc2)cc1 [Compound 33] |  | 29 |  | 92 |  | 7 |  |  |  |  |  |  | 89 |
| CCC(=Cc1ccc(NC(=N)N)cc1)C(=O)Oc1ccc(C=CC(=N)N)cc1 [Compound 36] |  | 8 |  |  | 93 | 0 |  | < 5.00 | 5.30 | 5.30 |  |  | 40 |
| N=C(N)C=Cc1ccc(OC(=O)c2ccc([N+](=O)[O-])cc2)cc1 [Compound 37] | 99 | 95 |  |  | 100 | 94 |  |  |  |  |  |  |  |
| N=C(N)C=Cc1ccc(OC(=O)CCCc2ccc([N+](=O)[O-])cc2)cc1 [Compound 38] | 76 | 27 |  |  | 98 | 7 |  |  |  |  |  |  |  |
| N=C(N)C=Cc1ccc(OC(=O)C=Cc2ccccc2Cl)cc1 [Compound 40] |  | 0 |  |  | 15 | 0 |  |  |  |  |  |  | 3 |
